Reference: patent US11597724B2, “Herbicidally active 3-phenylisoxazoline-5-carboxamides of tetrahydro and dihydrofuran carboxylic acids and esters” (Bayer Aktiengesellschaft, priority 2017, dated 2023)

Key:
Type in all cases: in vivo
[1] = test system: Hordeum murinum; experiment: Pre-emergence herbicidal activity against HORMU; settings: dosage 80 g/ha; for pest or weed control at 80 g/ha: Hordeum murinum, 504 h
Source text: (§1) 1. Pre-Emergence Herbicidal Action and Crop Plant Compatibility Seeds of monocotyledonous and dicotyledonous weed plants and crop plants are placed in plastic or wood fiber pots and covered with soil. The compounds of the invention, formulated in the form of wettable powders (WP) or as emulsion concentrates (EC), are then applied onto the surface of the covering soil as aqueous suspension or emulsion with addition of 0.5% additive at a water application rate of 600 l/ha (converted). After the treatment, the pots are placed in a greenhouse and kept under good growth conditions for the trial plants. After about 3 weeks, the effect of the preparations is scored visually in comparison with untreated controls as percentages. For example, 100% activity=the plants have died, 0% activity=like control plants. ECHCG: Echinochloa crus-galli HORMU: Hordeum murinum

[2] = test system: Echinochloa crus-galli; experiment: Pre-emergence herbicidal activity against ECHCG; settings: dosage 80 g/ha, scored visually after about 3 weeks vs untreated controls (100% = plants have died, 0% = like control plants); for pest or weed control at 80 g/ha: Echinochloa crus-galli, 504 h
Source text: as §1

[3] = test system: Pharbitis purpurea; experiment: Pre-emergence herbicidal activity against PHBPU; settings: dosage 80 g/ha; for pest or weed control at 80 g/ha: Ipomoea purpurea, 504 h
Source text: as §1, with “LOLRI: Lolium rigidum PHBPU: Pharbitis purpurea” for “ECHCG: Echinochloa crus-galli HORMU: Hordeum murinum”

SMILES | pest or weed control at 80 g/ha [1] [%] | pest or weed control at 80 g/ha [2] [%] | pest or weed control at 80 g/ha [3] [%] | Pre-emergence herbicidal activity against HORMU in % [1] [%] | Pre-emergence herbicidal activity against ECHCG in % [2] [%] | Pre-emergence herbicidal activity against PHBPU in % [3] [%]
C=C[C@]1(C(=O)N[C@H]2CO[C@@H](C(=O)OCC)C2)CC(c2cc(F)cc(F)c2)=NO1 (mixture of isomers) [I-35, ethyl cis-4-[[(5S)-3-(3,5-difluorophenyl)-5-vinyl-4H-isoxazole-5-carbonyl]amino]tetrahydrofuran-2-carboxylate] | 100 | 100 | 90 | – | – | –
C=C[C@]1(C(=O)N[C@H]2CO[C@@H](C(=O)OC(C)C)C2)CC(c2cc(F)cc(F)c2)=NO1 (mixture of isomers) [I-36, isopropyl cis-4-[[(5S)-3-(3,5-difluorophenyl)-5-vinyl-4H-isoxazole-5-carbonyl]amino]tetrahydrofuran-2-carboxylate] | 90 | 100 | 90 | – | – | –
C=C[C@]1(C(=O)N[C@H]2CO[C@@H](C(=O)OCc3ccccc3)C2)CC(c2cc(F)cc(F)c2)=NO1 (mixture of isomers) [I-37, benzyl cis-4-[[(5S)-3-(3,5-difluorophenyl)-5-vinyl-4H-isoxazole-5-carbonyl]amino]tetrahydrofuran-2-carboxylate] | 100 | 90 | 90 | – | – | –
C=C[C@]1(C(=O)N[C@H]2CO[C@@H](C(=O)OC(C)(C)C)C2)CC(c2cc(F)cc(F)c2)=NO1 (mixture of isomers) [I-38, tert-butyl cis-4-[[(5S)-3-(3,5-difluorophenyl)-5-vinyl-4H-isoxazole-5-carbonyl]amino]tetrahydrofuran-2-carboxylate] | 90 | 100 | – | – | – | –
CC1(C(=O)NC2COC(C(=O)O)C2)CC(c2cc(F)cc(F)c2)=NO1 (mixture of isomers) [I-41] | – | – | – | 100 | 100 | 90
CC(C)(C)OC(=O)C1CC(NC(=O)C2(C)CC(c3cc(F)cc(F)c3)=NO2)CO1 (mixture of isomers) [I-42] | – | – | – | 100 | 100 | 90
CCOC(=O)C1CC(NC(=O)C2(C)CC(c3cc(F)cc(F)c3)=NO2)CO1 (mixture of isomers) [I-43] | – | – | – | 90 | 100 | –
CC1(C(=O)NC2COC(C(=O)OCc3ccccc3)C2)CC(c2cc(F)cc(F)c2)=NO1 (mixture of isomers) [I-45] | – | – | – | 100 | 100 | 90
COC(=O)C1CC(NC(=O)C2(C)CC(c3cc(F)cc(F)c3)=NO2)CO1 (mixture of isomers) [I-48] | – | – | – | 100 | 90 | 90
CCOC(=O)[C@H]1C[C@@H](NC(=O)C2(C)CC(c3cccc(F)c3)=NO2)CO1 (mixture of isomers) [I-30, ethyl cis-4-[[(5RS)-3-(3-fluorophenyl)-5-methyl-4H-isoxazole-5-carbonyl]amino]tetrahydrofuran-2-carboxylate] | 90 | – | – | – | – | –
CC(C)(C)OC(=O)[C@H]1C[C@@H](NC(=O)C2(C)CC(c3cccc(F)c3)=NO2)CO1 (mixture of isomers) [I-33, tert-butyl cis-4-[[(5RS)-3-(3-fluorophenyl)-5-methyl-4H-isoxazole-5-carbonyl]amino]tetrahydrofuran-2-carboxylate] | 80 | – | – | – | – | –
CC1(C(=O)N[C@H]2CO[C@@H](C(=O)OCc3ccccc3)C2)CC(c2cccc(F)c2)=NO1 (mixture of isomers) [I-34, benzyl cis-4-[[(5RS)-3-(3-fluorophenyl)-5-methyl-4H-isoxazole-5-carbonyl]amino]tetrahydrofuran-2-carboxylate] | – | 80 | – | – | – | –
COC(=O)[C@H]1C[C@@H](NC(=O)C2(C)CC(c3cc(F)cc(F)c3)=NO2)CO1 (relative stereo) [I-01, methyl cis-4-[[3-(3,5-difluorophenyl)-5-methyl-4H-isoxazole-5-carbonyl]amino]tetrahydrofuran-2-carboxylate] | – | 80 | – | – | – | –
C=CC1(C(=O)N[C@H]2CO[C@@H](C(=O)O)C2)CC(c2cc(F)cc(F)c2)=NO1 (relative stereo) [I-21, cis-4-[[3-(3,5-difluorophenyl)-5-vinyl-4H-isoxazole-5-carbonyl]amino]tetrahydrofuran-2-carboxylic acid] | – | 100 | 80 | – | – | –
C=C[C@]1(C(=O)N[C@H]2CO[C@@H](C(=O)OC)C2)CC(c2cc(F)cc(F)c2)=NO1 (single isomer, unassigned) [I-12] | 100 | 90 | – | – | – | –
C=C[C@]1(C(=O)NC2COCC2C(=O)OC)CC(c2cc(F)cc(F)c2)=NO1 (stereo partly drawn) [I-26, methyl 4-[[(5S)-3-(3,5-difluorophenyl)-5-vinyl-4H-isoxazole-5-carbonyl]amino]tetrahydrofuran-3-carboxylate] | – | 90 | 90 | – | – | –
COC(=O)C1COCC1NC(=O)[C@@]1(C)CC(c2cc(F)cc(F)c2)=NO1 (stereo partly drawn) [I-28, methyl 4-[[(5R)-3-(3,5-difluorophenyl)-5-methyl-4H-isoxazole-5-carbonyl]amino]tetrahydrofuran-3-carboxylate] | – | 90 | 90 | – | – | –
COC(=O)C1=C[C@H](NC(=O)C2(C)CC(c3cccc(F)c3)=NO2)CO1 (stereo partly drawn) [I-39, methyl (3S)-3-[[3-(3-fluorophenyl)-5-methyl-4H-isoxazole-5-carbonyl]amino]-2,3-dihydrofuran-5-carboxylate] | 100 | – | – | – | – | –
CC(C)OC(=O)C1CC(NC(=O)C2(C)CC(c3cc(F)cc(F)c3)=NO2)CO1 (centres unmarked) [I-44] | – | – | – | 100 | 90 | 80
COC(=O)C1=C[C@@H](NC(=O)C2(C)CC(c3cccc(F)c3)=NO2)CO1 (stereo partly drawn) [I-46, methyl (3R)-3-[[3-(3-fluorophenyl)-5-methyl-4H-isoxazole-5-carbonyl]amino]-2,3-dihydrofuran-5-carboxylate] | 100 | 90 | – | – | – | –
COC(=O)[C@@]1(OC)C[C@@H](NC(=O)C2(C)CC(c3cccc(F)c3)=NO2)CO1 (stereo partly drawn) [I-47, methyl (2R,4R)-4-[[3-(3-fluorophenyl)-5-methyl-4H-isoxazole-5-carbonyl]amino]-2-methoxytetrahydrofuran-2-carboxylate] | 90 | – | – | – | – | –
COC(=O)C1CC(NC(=O)C2(C(C)(F)F)CC(c3cc(F)cc(F)c3)=NO2)CO1 (centres unmarked) [I-49] | – | – | – | 100 | 100 | 90
